From patent US20160002667A1, “PSEUDOMONAS EXOTOXINS FOR CANCER TREATMENT” (RUSH UNIVERSITY MEDICAL CENTER, priority 2013, published 2016)

Tests used:
[1] = test system: various cancer cell lines; test: Propidium iodide time-lapse cytotoxicity / mean time to death in various cancer cell lines infected with P. aeruginosa expressing exotoxin; assay type: cell-based; conditions: listed cancer cell lines, FIG. 4
Experimental: FIG. 4 is a table summarizing the effect of Pseudomonas exotoxins on various cancer cell lines. Pseudomonas exotoxins are able to kill a variety of cancer cell lines. Listed cell lines were infected with Pseudomonas aeruginosa expressing either ExoU, ExoS, or ExoT in the presence of the cell death dye propidium iodide and observed by time-lapse videomicroscopy. Based on PI staining analysis, the mean time to death was determined for each cell line. […] (ND: no death).
For example, ExoU kills 100% of highly metastatic breast cancer cell line 4T1 within 2-3 hours, as indicated by propidium iodide (PI) staining (red) in FIG. 1.

[2] = test system: 4T1 metastatic breast cancer cells; assay type: cell-based; conditions: cisplatin 50 uM, PI fluorescence
Experimental: The cell death stain propidium iodide (PI) was added and the cells were observed by time-lapse videomicroscopy. Cytotoxicity was determined by measuring the PI fluorescence intensity at each time point using ImageJ (NIH).
Cells were observed by time-lapse videomicroscopy in the presence of the cell death dye propidium iodide.

[3] = test system: A375 cells; test: Mitotic events by time-lapse video microscopy after transfection; assay type: cell-based; conditions: vector alone ~33%
From the text: A375 cells were transfected with ExoT, the GAP or ADPRT domain mutants or GFP vector alone. Cells were observed by time-lapse video microscopy. The number of mitotic events per cells in each field of view was counted.

[4] = test system: A375 melanoma cells; test: Proliferation by phase time-lapse videomicroscopy after transfection; assay type: cell-based
[5] = test system: HeLa cells; test: Apoptosis and apoptotic compensatory proliferation signaling; assay type: cell-based
From the text: It has long been postulated that dying cells induce compensatory proliferation in neighboring cells as a means to control homeostasis and maintain tissue integrity but the players and the mechanisms involved in the compensatory proliferation signaling have remained unknown.

[6] = test system: cancer cells that are resistant to its cytotoxicity; test: G1 cell cycle arrest in cancer cells resistant to ExoT cytotoxicity; assay type: cell-based; conditions: all cancer cells examined that are resistant to ExoT cytotoxicity
From the text: (v) Exotoxin T is also a potent anti-proliferative agent. […] This feature can be quite useful in combination therapy.

[7] = test system: B16 cells; test: Cell motility tracking by time-lapse video microscopy; assay type: cell-based; conditions: tracked over a 10 h period, versus GFP transfected cells
Experimental: B16 cells were transfected with ExoT, the GAP or ADPRT domain mutants or GFP vector alone. Cells were observed by time-lapse video microscopy and tracked over a 10 h period using ImageJ (NIH). The mean track length during this time is shown. […] Importantly, ExoT could have an impact on reducing metastasis of cancer cells.

[8] = test system: A375 cells; assay type: cell-based; conditions: versus GAP domain alone, GAP/ADPRT double mutant or GFP alone
Experimental: B16 and A375 cells were transfected with either GFP-fused ExoT, GAP and/or ADPRT domain mutants or GFP vector alone. Cytotoxicty was determined by positive propidium iodide staining.
We also discovered that ExoT is effective in killing the melanoma cell lines B16 and A375. B16 cells shown here were transfected with either a GFP expressing vector or ExoT directly fused to GFP. Cells were imaged in the presence of the cell death dye propidium iodide and observed by time-lapse videomicroscopy.

[9] = synthetic substrate; cited from earlier work
[10] = test system: Rho, Rac, and Cdc42; conditions: cited from earlier work

Substance	speed of killing and potency (mean time to death by PI staining) [1]	cytotoxicity compared with cisplatin [2]	mitotic cells [3]	cell division [4]	apoptosis ([5]; HeLa)	formation of compensatory complexes and induction of proliferation in surrounding cells ([5]; apoptotic HeLa cells)	cell cycle arrest [6]	mean track length [7]	cytotoxicity (positive propidium iodide staining) [8]	ADPRT activity in vitro compared to ExoS [9]	GAP activity in vitro [10]
ExoS	fastest killing and greatest potentcy	more potent cytotoxicity than cisplatin									
ExoT	less potent and unable to kill some cell lines	more potent cytotoxicity than cisplatin	complete block of mitotic cells	blocked cell division	induces potent apoptosis	interferes with the ability of apoptotic HeLa cells to form compensatory complexes and induce proliferation in the surrounding cells	complete G1cell cycle arrest	significantly shorter track lengths	significantly greater cytotoxicity	0.2%	
R149K: ExoT with the invariant arginine of the GAP domain mutated to lysine											complete loss of GAP activity
